From patent publication US7238701B2, “Substituted tetrahydrobenzothienopyrimidinamine compounds useful for treating hyper-proliferative disorders” (Bayer Pharmaceuticals Corporation, priority 2003, dated 2007) come the findings set out here.

Experiment [1] relates to BT474 (human breast carcinoma). The experiment is described as follows: In vitro tumor cell proliferation assay (Cell Titer-Glo luminescent cell viability), BT474 cells. To be noted: BT-474, 72 hours drug exposure, 10% Fetal Bovine Serum, ATP luminescence readout, read-out: IC50 (50% inhibition of cell proliferation). The experiment is classed as cell-based. The procedure, abridged: (§1)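 ATP luminescence (CellTiter-Glo) measured proliferation after 72 h compound exposure at 37 °C, giving IC50 values. Serial dilutions spanning 64 pM–100 μM in 0.1% DMSO were applied one day after plating 2.5×10^3 cells/well in RPMI plus 10% fetal bovine serum.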

The test system of experiment [2] is A431cells (human epidermoid carcinoma). The experiment is described as follows: In vitro tumor cell proliferation assay (Cell Titer-Glo luminescent cell viability), A431 cells. The format is cell-based. To be noted: A-431, 72 h, 72 hours drug exposure, 10% Fetal Bovine Serum, ATP luminescence readout, read-out: IC50 (50% inhibition of cell proliferation). The method in brief:
as §1

Consider `COCCN1CCN(CCC2CCc3c(sc4ncnc(Nc5ccc(OCc6ccccn6)c(Cl)c5)c34)C2)CC1` (stereo not shown) [Example 188, N-[3-chloro-4-(pyridin-2-ylmethoxy)phenyl]-7-{2-[4-(2-methoxyethyl)piperazin-1-yl]ethyl}-5,6,7,8-tetrahydro[1]benzothieno[2,3-d]pyrimidin-4-amine], for which the IC50 in experiment [1] was < 5 µM; in experiment [2], < 50 µM.

As for `CN(C)CCNCCC1CCc2c(sc3ncnc(Nc4ccc(OCc5cccc(F)c5)c(Cl)c4)c23)C1` (stereo not shown) [Example 162, N′-{2-[4-({3-chloro-4-[(3-fluorobenzyl)oxy]phenyl}amino)-5,6,7,8-tetrahydro[1]benzothieno[2,3-d]pyrimidin-7-yl]ethyl}-N,N-dimethylethane-1,2-diamine], the IC50 in experiment [1] and in experiment [2] was < 5 µM each time.

On to `COc1ccc(N2CCN(C(=O)C3CCc4c(sc5ncnc(Nc6cccc(Br)c6)c45)C3)CC2)cc1` (stereo not shown) [Example 49, N-(3-bromophenyl)-7-{[4-(4-methoxyphenyl)-1-piperazinyl]carbonyl}-5,6,7,8-tetrahydro[1]benzothieno[2,3-d]pyrimidin-4-amine], for which the IC50 in experiment [1] and in experiment [2] was < 50 µM throughout.

Take `CN(C)CCC1CCc2c(sc3ncnc(Nc4ccc5c(cnn5Cc5ccccc5)c4)c23)C1` (stereo not shown) [Example 228, N-(1-benzyl-1H-indazol-5-yl)-7-[2-(dimethylamino)ethyl]-5,6,7,8-tetrahydro[1]benzothieno[2,3-d]pyrimidin-4-amine]: the IC50 in experiment [1] is < 5 µM; in experiment [2] it was < 50 µM.

With `CS(=O)(=O)CCNCCC1CCc2c(sc3ncnc(Nc4ccc(F)c(Cl)c4)c23)C1` (stereo not shown) [Example 97, N-(3-chloro-4-fluorophenyl)-7-(2-{[(2-methylsulfonyl)ethyl]amino}ethyl)-5,6,7,8-tetrahydro[1]benzothieno[2,3-d]pyrimidin-4-amine], the IC50 in experiment [1] and in experiment [2] was < 5 µM throughout.

For the molecule `CN(C)[C@@H]1CCN(CCC2CCc3c(sc4ncnc(Nc5cccc(Br)c5)c34)C2)C1` (stereo partly drawn) [Example 94, N-(3-bromophenyl)-7-{2-[(3R)-3-(dimethylamino)-1-pyrrolidinyl]ethyl}-5,6,7,8-tetrahydro[1]benzothieno[2,3-d]pyrimidin-4-amine], the IC50 in experiment [1] and in experiment [2] was < 5 µM each time.

As to `CN1CCN(CCC2CCc3c(sc4ncnc(Nc5cccc(Br)c5)c34)C2)CC1` (stereo not shown) [Example 80, N-(3-bromophenyl)-7-[2-(4-methyl-1-piperazinyl)ethyl]-5,6,7,8-tetrahydro[1]benzothieno[2,3-d]pyrimidin-4-amine], the IC50 in experiment [1] and in experiment [2] was < 5 µM throughout.

Consider `Fc1cccc(COc2ccc(Nc3ncnc4sc5c(c34)CCC(CCBr)C5)cc2Cl)c1` (stereo not shown) [Example 138, [7-(2-Bromo-ethyl)-5,6,7,8-tetrahydro-benzo[4,5]thieno[2,3-d]pyrimidin-4-yl]-[3-chloro-4-(3-fluoro-benzyloxy)-phenyl]-amine], for which the IC50 in experiment [1] is < 5 µM; in experiment [2], < 50 µM.

Consider `CCOC(=O)CC1CCc2c(sc3ncnc(Nc4ccc(OCc5cccc(F)c5)c(Cl)c4)c23)C1` (stereo not shown) [Example 136, {4-[3-Chloro-4-(3-fluoro-benzyloxy)-phenylamino]-5,6,7,8-tetrahydro-benzo[4,5]thieno[2,3-d]pyrimidin-7-yl}-acetic acid ethyl ester], for which the IC50 in experiment [1] is < 5 µM; in experiment [2], < 50 µM.

Regarding `CN(C)CCC1CCc2c(sc3ncnc(Nc4ccc(OCc5ccccn5)c(Cl)c4)c23)C1` (stereo not shown) [Example 185, N-[3-chloro-4-(pyridin-2-ylmethoxy)phenyl]-7-[2-(dimethylamino)ethyl]-5,6,7,8-tetrahydro[1]benzothieno[2,3-d]pyrimidin-4-amine], the IC50 in experiment [1] and in experiment [2] was < 5 µM in each case.

For `C=CCNC(=O)C1CCc2c(sc3ncnc(Nc4cccc(Br)c4)c23)C1` (stereo not shown) [Example 56, N-allyl-4-[(3-bromophenyl)amino]-5,6,7,8-tetrahydro[1]benzothieno[2,3-d]pyrimidine-7-carboxamide], the IC50 in experiment [1] and in experiment [2] was < 50 µM each time.

On to `COCCNCCC1CCc2c(sc3ncnc(Nc4ccc(Oc5ccc(C)nc5)c(C)c4)c23)C1` (stereo not shown) [Example 216, 7-{2-[(2-methoxyethyl)amino]ethyl}-N-{3-methyl-4-[(6-methylpyridin-3-yl)oxy]phenyl}-5,6,7,8-tetrahydro[1]benzothieno[2,3-d]pyrimidin-4-amine], for which the values for the IC50 in experiment [1] and in experiment [2] were < 5 µM and < 50 µM, respectively.

In the case of `CNCCC1CCc2c(sc3ncnc(Nc4ccc(OCc5ccccn5)c(Cl)c4)c23)C1` (stereo not shown) [Example 187, N-[3-chloro-4-(pyridin-2-ylmethoxy)phenyl]-7-[2-(methylamino)ethyl]-5,6,7,8-tetrahydro[1]benzothieno[2,3-d]pyrimidin-4-amine], the IC50 in experiment [1] was < 5 µM; in experiment [2], < 50 µM.

Regarding `CN(C)[C@@H]1CCN(CCC2CCc3c(sc4ncnc(Nc5ccc(F)c(Cl)c5)c34)C2)C1` (stereo partly drawn) [Example 100, N-(3-chloro-4-fluorophenyl)-7-{2-[(3R)-3-(dimethylamino)-1-pyrrolidinyl]ethyl}-5,6,7,8-tetrahydro[1]benzothieno[2,3-d]pyrimidin-4-amine], the IC50 in experiment [1] and in experiment [2] was < 50 µM in each case.

Consider `Cc1ccc(Oc2ccc(Nc3ncnc4sc5c(c34)CCC(CCNCCN3CCOCC3)C5)cc2C)cn1` (stereo not shown) [Example 220, N-{3-methyl-4-[(6-methylpyridin-3-yl)oxy]phenyl}-7-{2-[(2-morpholin-4-ylethyl)amino]ethyl}-5,6,7,8-tetrahydro[1]benzothieno[2,3-d]pyrimidin-4-amine], for which the IC50 in experiment [1] was < 5 µM; in experiment [2], < 50 µM.

As to `c1ccc(Cn2ncc3cc(Nc4ncnc5sc6c(c45)CCC(CCNCCN4CCCC4)C6)ccc32)cc1` (stereo not shown) [Example 211, N-(1-benzyl-1H-indazol-5-yl)-7-{2-[(2-pyrrolidin-1-ylethyl)amino]ethyl}-5,6,7,8-tetrahydro[1]benzothieno[2,3-d]pyrimidin-4-amine], the IC50 in experiment [1] and in experiment [2] was < 5 µM in each case.

`Fc1ccc(Nc2ncnc3sc4c(c23)CCC(CCN2CCCCC2)C4)cc1Cl` (stereo not shown) [Example 73, N-(3-chloro-4-fluorophenyl)-7-[2-(1-piperidinyl)ethyl]-5,6,7,8-tetrahydro[1]benzothieno[2,3-d]pyrimidin-4-amine]: the IC50 in experiment [1] and in experiment [2] was < 5 µM in each case.

On to `COCCNCCC1CCc2c(sc3ncnc(Nc4cccc(Br)c4)c23)C1` (stereo not shown) [Example 86, N-(3-bromophenyl)-7-{2-[(2-methoxyethyl)amino]ethyl}-5,6,7,8-tetrahydro[1]benzothieno[2,3-d]pyrimidin-4-amine], for which the IC50 in experiment [1] and in experiment [2] was < 5 µM in each case.

For the molecule `OCCC1CCc2c(sc3ncnc(Nc4ccc(OCc5cccc(F)c5)c(Cl)c4)c23)C1` (stereo not shown) [Example 137, 2-{4-[3-Chloro-4-(3-fluoro-benzyloxy)-phenylamino]-5,6,7,8-tetrahydro-benzo[4,5]thieno[2,3-d]pyrimidin-7-yl}-ethanol], the IC50 is < 5 µM in experiment [1] and < 50 µM in experiment [2].

In the case of `CCOC(=O)C1CCc2c(sc3ncnc(Nc4ccc(C)c(O)c4)c23)C1` (stereo not shown) [Example 39, Ethyl 4-[(3-hydroxy-4-methylphenyl)amino]-5,6,7,8-tetrahydro[1]benzothieno[2,3-d]pyrimidine-7-carboxylate], the IC50 was < 5 µM in experiment [1] and < 50 µM in experiment [2].
